The source of these data is ChEMBL document CHEMBL4765425, “Synthesis of 1,3,4-oxadiazole derivatives with anticonvulsant activity and their binding to the GABA receptor” (Eur J Med Chem, 2020).

Series [1] can be described thus: Neurotoxicity in Kunming mouse at 100 mg/kg, ip measured after 30 mins by rotarod test. The class given is toxicity, organism-based. The settings on record: in vivo, 0.5 h. (The rotarod test checks motor coordination on a turning rod.)
Series [2] is described as follows: Neurotoxicity in Kunming mouse at 300 mg/kg, ip measured after 30 mins by rotarod test. The class given is toxicity, organism-based. The settings on record: in vivo, 0.5 h.
For series [3], the system named is Mus musculus. Description: Anticonvulsant activity in Kunming mouse assessed as reduction in ScPTZ-induced seizure at 300 mg/kg, ip measured after 30 mins. In kind it is functional, organism-based.
In series [4] the test system is Mus musculus. Description: Anticonvulsant activity in Kunming mouse assessed as reduction in MES-induced seizure at 300 mg/kg, ip measured after 30 mins. In kind it is functional, organism-based.
For series [5], the system named is Mus musculus. Description: Anticonvulsant activity in Kunming mouse assessed as reduction in MES-induced seizure at 100 mg/kg, ip measured after 30 mins. The class given is functional, organism-based.
Series [6] relates to Mus musculus. Description: Anticonvulsant activity in Kunming mouse assessed as reduction in ScPTZ-induced seizure at 100 mg/kg, ip measured after 30 mins. In kind it is functional, organism-based.
A short description of series [7]: Displacement of [3H]flunitrazepam from GABA-A receptor benzodiazepine site in mouse cerebellum synaptosomal membrane. The class given is subcellular, Synaptosome. Background: Loss of bound radioactivity is the signal in a displacement assay; it reports binding, not function.
A short description of series [8]: Protection index, ratio of TD50 for neurotoxicity in ip dosed Kunming mouse to ED50 for anticonvulsant activity in ip dosed MES-induced Kunming mouse. In kind it is toxicity, organism-based. The settings on record: in vivo, read-out: TI.
Series [9] has as its system Mus musculus. Description: Anticonvulsant activity in ip dosed Kunming mouse assessed as reduction in ScPTZ-induced seizure measured after 30 mins. In kind it is functional. The settings on record: 0.5 h.
Series [10] deals with Mus musculus. Description: Anticonvulsant activity in ip dosed Kunming mouse assessed as reduction in MES-induced seizure measured after 30 mins. The class given is functional. The settings on record: 0.5 h.
Series [11] in a line: Neurotoxicity in ip dosed Kunming mouse measured after 30 mins by rotarod test. In kind it is toxicity, organism-based. The settings on record: in vivo.
The nature of series [12]: Protection index, ratio of TD50 for neurotoxicity in ip dosed Kunming mouse to ED50 for anticonvulsant activity in ip dosed ScPTZ-induced Kunming mouse. The class given is toxicity, organism-based. The settings on record: in vivo, read-out: TI.
For series [13], the system named is Mus musculus. Description: Anticonvulsant activity in Kunming mouse assessed as reduction in MES-induced seizure at 30 mg/kg, ip measured after 30 mins. The class given is functional, organism-based.

Active and inactive are the calls of the source. No cut-off for these calls is given here.

Take `CC(=O)Nc1ccc(OCc2nnc(SCc3ccccc3C)o2)cc1`: the Activity result in series [1] and in [2] was “Non-Toxic” throughout. For the same compound, the result in the series with Mus musculus [3] and with Mus musculus [4] was Active.
For the compound `CC(=O)Nc1ccc(OCc2nnc(SCc3cccc(F)c3)o2)cc1`, the Activity entry in series [1] and in [2] was “Non-Toxic” throughout. Also, the result with Mus musculus [5] and with Mus musculus [6] was inactive.
Consider `CCCCSc1nnc(COc2ccc(-n3cnnc3)cc2)o1`, for which the Activity entry in [1] and in [2] was “Non-Toxic” in each case. The outcome in the series with Mus musculus [4] was Active.
Turning to `CC(=O)Nc1ccc(OCc2nnc(SCc3cccc(Cl)c3)o2)cc1`, the Activity result in series [1] and in series [2] was “Non-Toxic” in each case. For the same compound, the outcome in the series on Mus musculus [5] and in the series with Mus musculus [6] was inactive.
As a reminder, the IC50 is the concentration at which inhibition is half-maximal. Read a low IC50 as higher potency. By ED50 is commonly meant the midpoint of the dose-response relation. By TD50 is commonly meant the 50% point of the dose-response relation for the toxic effect studied. Read a high TD50 as harm only at a large dose. `CCCCCCSc1nnc(COc2ccc(NC(C)=O)cc2)o1` showed an IC50 in series [7] of 4.12 µM. Moreover, the Activity entry in series [1] and in series [2] was “Non-Toxic” throughout. The selectivity ratio worked out at 20.1 in series [8] and 15.6 in series [12]. The outcome in the series on Mus musculus [5] and in the series on Mus musculus [6] was Active. For the same compound, the ED50 in the series on Mus musculus [9] was 26.8 mg/kg; with Mus musculus [10], 20.9 mg/kg. This compound also yielded a TD50 at 0.5 h in series [11] of 420 mg/kg.
Take `CCCCCCCCCSc1nnc(COc2ccc(NC(C)=O)cc2)o1`: the Activity entry in series [1] and in series [2] was “Non-Toxic” each time. The outcome in the series on Mus musculus [5] and in the series on Mus musculus [6] was inactive.
`O=C1CCc2cc(OCc3nnc(SCc4ccccc4C(F)(F)F)o3)ccc2N1`: the Activity result in [1] and in series [2] was “Non-Toxic” throughout. In addition, the outcome with Mus musculus [3] and with Mus musculus [4] was Active.
As for `O=C1CCc2cc(OCc3nnc(SCc4ccccc4F)o3)ccc2N1`, the Activity result in series [1] and in [2] was “Non-Toxic” each time. Also, the outcome in the series on Mus musculus [3] and with Mus musculus [4] was Active.
As for `CC(=O)Nc1ccc(OCc2nnc(SCc3ccccc3)o2)cc1`, the Activity entry in series [1] and in series [2] was “Non-Toxic” throughout.
`CCCCCCCCCSc1nnc(COc2ccc3c(c2)CCC(=O)N3)o1`: the Activity entry in series [1] and in [2] was “Non-Toxic” in each case. Further, the result in the series on Mus musculus [4] was Active. Besides, the outcome in the series on Mus musculus [6] was inactive.
`O=C1CCc2cc(OCc3nnc(SCc4ccc(Cl)cc4)o3)ccc2N1`: the Activity entry in series [1] and in series [2] was “Non-Toxic” in each case. For the same compound, the outcome with Mus musculus [6] was inactive.
For `CCCCSc1nnc(COc2ccc(NC(C)=O)cc2)o1`, the Activity entry in series [1] and in series [2] was “Non-Toxic” each time. In the series on Mus musculus [13], the result was inactive.
Turning to `O=C1CCc2cc(OCc3nnc(SCc4cccc(Cl)c4)o3)ccc2N1`, the Activity entry in series [1] and in series [2] was “Non-Toxic” each time. For the same compound, the outcome in the series with Mus musculus [3] and in the series with Mus musculus [4] was Active.
Turning to `Cc1ccc(CSc2nnc(COc3ccc4c(c3)CCC(=O)N4)o2)cc1`, the Activity result in series [1] and in series [2] was “Non-Toxic” throughout. For the same compound, the outcome in the series on Mus musculus [5] and in the series with Mus musculus [4] was Active.
On to `CC(=O)Nc1ccc(OCc2nnc(SCc3ccc(C(F)(F)F)cc3)o2)cc1`, for which the Activity result in series [1] and in [2] was “Non-Toxic” each time. Moreover, the result in the series on Mus musculus [5] and in the series on Mus musculus [6] was Active.
As to `CCCCCCCCSc1nnc(COc2ccc(NC(C)=O)cc2)o1`, the Activity result in series [1] and in [2] was “Non-Toxic” in each case. Besides, the outcome in the series with Mus musculus [13] was inactive.
For the compound `CCCCCCCSc1nnc(COc2ccc(NC(C)=O)cc2)o1`, the Activity entry in series [1] and in [2] was “Non-Toxic” throughout.
As to `Cc1cccc(CSc2nnc(COc3ccc4c(c3)CCC(=O)N4)o2)c1`, the Activity result in [1] and in series [2] was “Non-Toxic” each time. Besides, the result with Mus musculus [3] and in the series with Mus musculus [4] was Active.
For the compound `O=C1CCc2cc(OCc3nnc(SCc4cccc(C(F)(F)F)c4)o3)ccc2N1`, the Activity result in series [1] and in [2] was “Non-Toxic” throughout. In addition, the result with Mus musculus [3] and in the series with Mus musculus [4] was Active.
Take `CCCCCCCSc1nnc(COc2ccc3c(c2)CCC(=O)N3)o1`: the Activity entry in series [1] and in series [2] was “Non-Toxic” each time. In addition, the outcome in the series on Mus musculus [4] was Active.
Consider `Cc1ccccc1CSc1nnc(COc2ccc3c(c2)CCC(=O)N3)o1`, for which the Activity entry in series [1] and in series [2] was “Non-Toxic” throughout. Moreover, the outcome with Mus musculus [3] and with Mus musculus [4] was Active.
Consider `CC(=O)Nc1ccc(OCc2nnc(SCc3ccc(C)cc3)o2)cc1`, for which the Activity result in series [1] and in series [2] was “Non-Toxic” in each case. Further, the result with Mus musculus [3] and in the series on Mus musculus [4] was Active.
Turning to `CC(=O)Nc1ccc(OCc2nnc(SCc3ccc(Cl)cc3)o2)cc1`, the Activity entry in series [1] and in series [2] was “Non-Toxic” each time. For the same compound, the outcome in the series with Mus musculus [5] and in the series on Mus musculus [6] was inactive.
Regarding `O=C1CCc2cc(OCc3nnc(SCc4ccc(C(F)(F)F)cc4)o3)ccc2N1`, the IC50 in series [7] was 5.28 µM. In addition, the Activity entry in series [1] and in series [2] was “Non-Toxic” each time. Moreover, the figures for the selectivity ratio in series [8] and in series [12] were 16.2 and 13.6, respectively. For the same compound, the result with Mus musculus [5] and in the series with Mus musculus [6] was Active. Moreover, the median effective dose (ED50) turned out to be 27.6 mg/kg in the series on Mus musculus [9] and 23.1 mg/kg in the series with Mus musculus [10]. The TD50 at 0.5 h in [11] came out at 376 mg/kg.
For the compound `O=C1CCc2cc(OCc3nnc(SCc4cccc(F)c4)o3)ccc2N1`, the Activity entry in series [1] and in [2] was “Non-Toxic” throughout.
As for `CCCCCSc1nnc(COc2ccc(NC(C)=O)cc2)o1`, the IC50 in series [7] is 1.29 µM. Besides, the Activity entry in series [1] and in series [2] was “Non-Toxic” in each case. Further, the selectivity ratio was 17.2 in [8] and 13.8 in [12]. Further, the result in the series on Mus musculus [5] and in the series with Mus musculus [6] was Active. For the same compound, the median effective dose (ED50) in the series on Mus musculus [9] worked out at 28.1 mg/kg; with Mus musculus [10], 22.6 mg/kg. In series [11], the TD50 at 0.5 h was 389 mg/kg.
Consider `CC(=O)Nc1ccc(OCc2nnc(SCc3ccccc3Cl)o2)cc1`, for which the Activity result in series [1] and in series [2] was “Non-Toxic” in each case. For the same compound, the result in the series on Mus musculus [3] and with Mus musculus [4] was Active.
Take `CCCCCCCCSc1nnc(COc2ccc3c(c2)CCC(=O)N3)o1`: the Activity entry in series [1] and in series [2] was “Non-Toxic” each time. In addition, the outcome with Mus musculus [13] was inactive. In the series on Mus musculus [4], the outcome was Active.
In the case of `CC(=O)Nc1ccc(OCc2nnc(SCc3cccc(C(F)(F)F)c3)o2)cc1`, the Activity entry in [1] and in [2] was “Non-Toxic” throughout. Also, the outcome in the series on Mus musculus [3] and in the series on Mus musculus [4] was Active.
As for `CCC1(C)CC(=O)NC1=O` (stereo not given) [ETHOSUXIMIDE], the Activity result in [1] is given as “Non-Toxic”. For the same compound, the ED50 in the series with Mus musculus [9] was determined as 106 mg/kg. This compound also returned a TD50 at 0.5 h in series [11] of 343 mg/kg. Besides, in [12], the selectivity ratio is 3.2.
Regarding `O=C1CCc2cc(OCc3nnc(SCc4ccccc4)o3)ccc2N1`, the Activity entry in series [1] and in series [2] was “Non-Toxic” each time. In addition, the result in the series on Mus musculus [4] was Active.
`O=C1CCc2cc(OCc3nnc(SCc4ccccc4Cl)o3)ccc2N1`: the Activity entry in series [1] and in series [2] was “Non-Toxic” in each case. Besides, in the series on Mus musculus [4], the outcome was Active. For the same compound, the outcome with Mus musculus [6] was inactive.
Turning to `CC(=O)Nc1ccc(OCc2nnc(SCc3ccccc3C(F)(F)F)o2)cc1`, the Activity entry in series [1] and in series [2] was “Non-Toxic” in each case.
Turning to `CC(=O)Nc1ccc(OCc2nnc(SCc3ccc(F)cc3)o2)cc1`, the Activity entry in series [1] and in [2] was “Non-Toxic” in each case. For the same compound, the outcome in the series on Mus musculus [3] and in the series on Mus musculus [4] was Active.
For the compound `CC(=O)Nc1ccc(OCc2nnc(SCc3cccc(C)c3)o2)cc1`, the Activity entry in series [1] and in series [2] was “Non-Toxic” in each case.
As to `CCCCSc1nnc(COc2ccc3c(c2)CCC(=O)N3)o1`, the Activity result in [1] and in [2] was “Non-Toxic” each time. Besides, the result with Mus musculus [3] and in the series on Mus musculus [4] was Active.
As for `O=C1CCc2cc(OCc3nnc(SCc4ccc(F)cc4)o3)ccc2N1`, the Activity entry in series [1] and in series [2] was “Non-Toxic” in each case. In the series with Mus musculus [5], the result was inactive. Also, the result with Mus musculus [3] was Active.
